Legend:
ALF mouse models [1] = assay: Liver enzymes activity measurement (serum ALT and AST) in ALF mouse models; assay type: in vivo, mice; conditions: for ALT activity in serum / AST activity in serum: APAP-induced ALF model, inhibitor i.p. 1 hour after 500 mg/kg APAP
Description: (§1) Mouse models—8 weeks old C57BL6 male mice were injected intraperitoneally with 500 mg/kg body mass acetaminophen (APAP) in PBS or 300 mg/kg of thioacetamide (TAA) in PBS, 20 hours prior to sample collection. To avoid known circadian effects, all injections were performed between 1 pm and 2 pm. Control mice were injected with vehicle (PBS). For antibiotic treatment, mice were given a cocktail of ampicillin (1 g/l), kanamycin (1 g/l), vancomycin (0.5 g/l) and metronidazole (1 g/l) in drinking water for two weeks. MyD88 and Trif double knockout mice were 8 weeks old, males on C57BL6 background^55. All experimental procedures involving mice were approved by the local IACUC.
MYC inhibition—MYC inhibitor KJ-Pyr-9 or vehicle control was injected intraperitoneally 2 hours following injection of APAP or PBS vehicle control. […] Mice were injected with 0.5 ml per 20 g, so the final dose of KJ-Pyr-9 was 25 mg per kilogram of body mass.
(§2) Inhibition of MAPK pathway proteins—The inhibitors listed in Table 1 hereinbelow were injected intraperitoneally 1 hour following injection of 500 mg/kg APAP or corresponding PBS vehicle. Briefly. The inhibitors were dissolved in 5% DMSO in PBS to a final injection volume of 400 μl for 20 g mouse. Control mice were injected with 5% DMSO in PBS vehicle.

Ly6C-positive monocytes = assay: Measurement of monocyte infiltration by FACS in ALF mouse models; assay type: in vivo, mice; conditions: for monocyte infiltration: APAP-induced ALF model, inhibitor i.p. 1 hour after 500 mg/kg APAP
Description: as §1
Measurement of monocyte infiltration—Livers harvested from mice were finely chopped with sterile scissors and digested with 4 ml of pre-warmed 0.4 mg/ml protease and 0.1 U/ml collagenase D (EBS buffer: 8 g/l NaCl, 0.4 g/l KCl, 88 mg/l NaH2PO4.H2O, 120 mg/l Na2HPO4.H2O, 2.38 g/l HEPES, 0.35 g/l NaHCO3, 0.42 g/l CaCl2) for 30 minutes at 37° C. while shaking Following, 10 ml of cold PBS was added and the suspension was filtered through a 100 μm mesh. To deplete hepatocytes, samples were centrifuged at 30 g for 5 minutes and the supernatant was transferred to new tubes. Cells were collected by centrifugation at 580 g. To lyse red blood cells, 1 ml of Gibco™ ACK Lysing Buffer was added and cells were incubated at room temperature for one minute. Subsequently, cold PBS was added and cells were collected by centrifugation at 580 g.
Receptors on the cells were first blocked with TruStain FcX anti-mouse CD16/32, then the cells were washed with FACS buffer (PBS without calcium and magnesium, 1% FCS), collected by centrifugation at 580 g and stained with CD45-PECy7 (Biolegend, 30F11, cat. 103114), F4/80-FITC (Serotec, Cl:A3-1, cat. G00018) and Ly6C-APC (Biolegend, HK14, cat. 128016) antibodies for 1 hour on ice. Finally, the cells were washed with FACS buffer, collected by centrifugation at 580 g, resuspended in FACS buffer, filtered through 40 μm mesh and measured on DB LSRFortessa. Data was analysed using FlowJo software.
(§3) MYC inhibition—MYC inhibitor KJ-Pyr-9 or vehicle control was injected intraperitoneally 2 hours following injection of APAP or PBS vehicle control. Briefly, 10 mg of KJ-Pyr-9 (Tocris, cat 5306) was dissolved in 1 ml of DMSO and then combined with Tween 80 and 5% dextrose 1:1:8 by volume. Mice were injected with 0.5 ml per 20 g, so the final dose of KJ-Pyr-9 was 25 mg per kilogram of body mass.
as §2, with “Control mice were injected with 5% DMSO in PBS vehicle.” left out

ALF mouse models [2] = assay: Histology score of H&E stained liver sections in ALF mouse models; assay type: in vivo, mice; conditions: for liver damage, histopathological analysis: APAP-induced ALF model, inhibitor i.p. 1 hour after 500 mg/kg APAP
Description: as §1
Histology—Sample from the left lobe of the liver was fixed in 4% paraformaldehyde, embedded in paraffin, sectioned and stained with hematoxylin and eosin (H&E). Slides were scored by a blinded veterinary pathologist for necrosis and hemorrhage on a scale from 0 (healthy) to 5 (most severe).
as §3, §2

ALF mouse models [3] = assay: Survival of APAP-administered mice; assay type: in vivo; conditions: n=15 per group
Description: as §1, §3

[4] = test system: stellate, endothelial and Kupffer cells; assay: Single cell RNA sequencing of liver cells; assay type: in vivo, mice; conditions: for number of differentially expressed genes: pseudobulk counts
Description: as §1
Following, liver was dissected, placed in cold EBS solution, shaken vigorously with forceps for separation of single cells, followed by filtration through a 100 μm mesh. Hepatocytes were depleted by centrifugation at 30 g for 5 minutes. Cells were then collected by centrifugation at 580 g and resuspended in cold PBS. To enrich for stellate cells, cells with retinoid fluorescence in the Pacific Blue channel were sorted using a BD FACSAria III. Following, stellate cells were mixed with unsorted cells, spun down, resuspended in PBS with 0.04% BSA and counted using Neubauer chamber.
10× library preparation and sequencing—Single cells were captured and processed using the 10× Genomics Chromium 3′ Single Cell RNA seq protocol according to the manufacturers' manual. Subsequently, RNA was sequenced using NextSeq® 500/550 High Output Kit v2 (Illumina cat no. 20024906).
as §3
Mapping: Single cell RNA sequencing data were demultiplexed, mapped to the GRCm38 mouse genome and UMIs were counted using the Cell Ranger Single-Cell Software Suite 2.1.1. Filtering and doublet removal: Cells with less than 100 detected transcripts and more than 10% mitochondrial reads were removed. Clustering analysis was used to identify populations of thrombocytes, erythrocytes, neutrophils and mast cells. Following, a second filtering was effected using 600 detected transcripts. […] The second step was necessary, as there were many low quality cells with low threshold. Following, doublets were identified by finding clusters of cells expressing gene expression patterns of two cell types at the same time. Marker sets used were Dcn, Colec11, Ecm1, Cxcl12, Sod3, Angptl6, Rgs5, Reln, Tmem56, Rbp1, G0s2, Rarres2, Acta2, Tagln for stellate cells; Gpihbp1, Aqp1, Clec4g, Dnase113, Fabp4, Ptprb, Kdr, Gpr182 for endothelial cells; Alb, Ttr, Ambp, Rbp4, Cyp2e1, Spp1 for hepatocytes; Cd3e, Cd3g, Cd3d, Lat, Thy1, Cxcr6, Nkg7, Cd4, Cd8b1, Klra4, Ncr1, Gzmb, Lck, Txk, Ms4a4b, Ccl5 for T cells; Cd79b, Cd79a, Ms4a1, Siglecg, Fcmr, Cd19, Fcer2a for B cells; Adgre1, Cd51, Clec4f, Timd4, Folr2, C1qa, C1qb, C1qc, Vsig4, Xcr1, Cd209a, Itgax, Siglech, Chil3, F13a1, S100a4, Lgals3, Gda, S100a9, Retnlg for macrophages, DCs and neutrophils; Alas2, Hbb-bt, Hbb-bs, Hba-a2, Hba-a1 for erythrocytes. Clustering—All cells from all 22 samples were first clustered using R package Seurat v2.3.4 FindClusters function^56. Genes that were present in less than 3 cells were removed and then highly variable genes were identified as having mean of non-zero values between 0.0125 and 3 and standard deviation higher than 0.5. Dimensionality reduction was effected with PCA and first 50 PCs were used for clustering.
As the liver population is very complex, it was decided to perform stepwise clustering. First, expression of Ecm1, Ptprc, Ptprb, Epcam, Msln and Alb in the obtained clusters was determined. […]

APAP-induced ALF = conditions: intravenous; cited from earlier work
[5] = both ALF models (APAP, TAA), KJ-Pyr-9 25 mg/kg i.p.
[6] = steady state, endothelial cells

## CN1C(=O)C(Cc2c[nH]c3ccccc23)NC1=S (centres unmarked) [RIP1 inhibitor, Nec1]
ALF mouse models [1]
  ALT activity in serum: significantly reduced
  AST activity in serum: significantly reduced

## COc1cc(O)c2c(c1)/C=C/C[C@H](O)[C@H](O)C(=O)/C=C\C[C@H](C)OC2=O [TAK1 inhibitor, 5Z-7-Oxozeaenol]
Ly6C-positive monocytes
  monocyte infiltration: significant reduction
ALF mouse models [1]
  AST activity in serum: significantly reduced
ALF mouse models [2]
  liver damage, histopathological analysis: significantly reduced liver damage

## NC(=O)c1ccc(-c2cc(-c3ccc([N+](=O)[O-])cc3)nc(-c3ccco3)c2)cc1 [MYCi, KJ-Pyr-9]
Ly6C-positive monocytes; ALF mice (FIGS. 4C APAP, 19A TAA), KJ-Pyr-9 25 mg/kg i.p. 2 hours after APAP
  infiltration of Ly6C-positive monocytes (F4/80 and Ly6C double-positive cells within the immune CD45-positive population): dramatic reduction
ALF mouse models [1]; [5]
  Serum ALT activity: attenuated
  Serum AST activity: attenuated
ALF mouse models [2]; during ALF (FIGS. 4F-G APAP, 19C-D TAA), KJ-Pyr-9 25 mg/kg i.p.
  hepatic damage, tissue histology by H&E staining: reduced hepatic damage
ALF mouse models [3]
  mortality: attenuated
[4]; ALF
  expression of metallothionein 1 and 2 (Mt1 and Mt2): remained unaffected
  neutrophil infiltration: not affected
  total gene expression level: lower total gene expression level
[4]; ALF, Kupffer cells
  expression of neutrophil attractant chemokine Cxcl2: did not get downregulated
[4]; ALF, activated stellate, Kupffer and endothelial cell subsets
  expression of the 82 genes constituting the common activation signature: markedly attenuated
[4]; ALF, stellate cells
  drop of median number of detected transcripts: ~4 times
  upregulation of senescence and cell cycle arrest marker Cdkn1a (coding p21): attenuated
[4]; ALF, stellate cells, 3500 without MYC inhibition
  median number of detected transcripts: 945
[4]; during ALF induction
  activated populations (AAs, AAe, AAk): did not arise
[4]; during ALF, activated resident populations
  Map3k8 expression (coding for TPL2): strong induction
[4]; either APAP- or TAA-induced ALF
  infiltration of Ly6C-positive monocytes to the liver (single cell transcriptomic data): near-total reduction
[4]; in the absence of liver failure
  effect on the gene expression landscape: did not feature a notable effect
[4]; steady state, Kupffer cells
  differentially expressed genes: downregulation of genes related to antigen processing and presentation
  number of differentially expressed genes: 94 genes
[4]; [6]
  differentially expressed genes: downregulation of genes of the AP1 family
  number of differentially expressed genes: 5 genes
[4]; steady state, stellate cells
  gene ontology analysis of differentially expressed genes: downregulation of genes coding for ribosome proteins and other components of the translation machinery
  number of differentially expressed genes: 148 genes

## C[S+]([O-])c1ccc(-c2nc(-c3ccncc3)c(-c3ccc(F)cc3)[nH]2)cc1 (centres unmarked) [p38 inhibitor, SB203580]
Ly6C-positive monocytes
  monocyte infiltration: significant reduction
ALF mouse models [1]
  ALT activity in serum: significantly reduced
  AST activity in serum: significantly reduced
ALF mouse models [2]
  liver damage, histopathological analysis: significantly reduced liver damage

## CC(=O)N[C@@H](CS)C(=O)O [N-acetylcysteine]
APAP-induced ALF
  adverse effects including anaphylactic reaction: ≤ 15 % of the cases
  effectiveness of the intervention: only very partially effective

## CC[C@@H]1[C@H](F)C(=O)N[C@@H]1COc1nccc2cc(C(N)=O)c(OC)cc12 [IRAK4 inhibitor, PF 06650833]
Ly6C-positive monocytes
  monocyte infiltration: significant reduction
ALF mouse models [1]
  ALT activity in serum: significantly reduced
  AST activity in serum: significantly reduced
ALF mouse models [2]
  liver damage, histopathological analysis: significantly reduced liver damage

Source: patent US20220362329A1, “TREATING ACUTE LIVER DISEASE WITH TLR-MIK INIHIBITORS” (Yeda Research and Development Co. Ltd., priority 2020, published 2022)
